Assay results from EP1167342A1, “Novel substituted nitrocatechols, their use in the treatment of some central and peripheral nervous system disorders and pharmaceutical compositions containing them” (Portela & Ca., S.A., priority 2000, dated 2002).

Tests used:
[1] = molecular target: T1, COMT (Homo sapiens, UniProt P21964); assay: COMT activity in intact SK-N-SH cells (methylation of adrenaline to metanephrine, HPLC with electrochemical detection); assay type: cell-based; conditions: concentration of test compound 100 nM, means ±SEM of n=4-8
T1 construct: COMT activity was evaluated in cell monolayers by the ability to methylate adrenaline; host or cells: SK-N-SH
T1 sequence (P21964 1-271): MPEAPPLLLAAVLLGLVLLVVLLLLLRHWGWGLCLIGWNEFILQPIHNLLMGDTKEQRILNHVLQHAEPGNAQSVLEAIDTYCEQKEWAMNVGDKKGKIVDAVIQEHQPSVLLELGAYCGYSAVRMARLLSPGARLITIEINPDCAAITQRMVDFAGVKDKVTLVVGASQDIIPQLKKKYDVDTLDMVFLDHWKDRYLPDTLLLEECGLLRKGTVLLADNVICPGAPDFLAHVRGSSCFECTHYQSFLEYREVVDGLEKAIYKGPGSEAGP

[2] = system: Liver COMT; assay: Ex vivo COMT activity in mouse liver homogenates after administration of test compound by gastric tube; set-up: species or system NMRI mice; conditions: for Liver COMT (% of control) 1h / Liver COMT (% of control) 6h: homogenates of mice liver, dose not given, means±S.E.M. of 4-8 experiments; for Liver COMT (% of control) 1h: 1 h after administration by gastric tube; for Liver COMT (% of control) 6h: 6 h after administration by gastric tube; for potency upon liver COMT compared with brain COMT: mice, after oral administration, statement in words
[3] = system: Brain COMT; assay: Ex vivo COMT activity in mouse brain homogenates after administration of test compound by gastric tube; set-up: species or system NMRI mice; conditions: for Brain COMT (% of control) 1h / Brain COMT (% of control) 6h: homogenates of mice brain, dose not given, means±S.E.M. of 4-8 experiments; for Brain COMT (% of control) 1h: 1 h after administration by gastric tube; for Brain COMT (% of control) 6h: 6 h after administration by gastric tube

Compound	COMT activity (% of control) [1]	Liver COMT (% of control) 1h [2]	Liver COMT (% of control) 6h [2]	potency upon liver COMT compared with brain COMT [2]	activity in the brain ([3]; conclusion, statement in words)	Brain COMT (% of control) 1h [3]	Brain COMT (% of control) 6h [3]
Cc1ccc(SCC(=O)c2cc(O)c(O)c([N+](=O)[O-])c2)cc1 [Compound 28, 1-(3,4-Dihydroxy-5-nitro-phenyl)-2-p-tolylsulphanyl-ethanone]	10.0±2.6 % of control	–	–	–	–	–	–
Cl.Cl.O=C(CCN1CCN(c2cccc(C(F)(F)F)c2)CC1)c1cc(O)c(O)c([N+](=O)[O-])c1 [Compound 18, 1-(3,4-Dihydroxy-5-nitro-phenyl)-3-[4-(3-trifluoromethyl-phenyl)-piperazin-1-yl]-propan-1-one dihydrochloride]	4.2±0.2 % of control	18.5±6.8 % of control	26.3±3.9 % of control	much more potent upon liver COMT than brain COMT	limited activity in the brain	86.0±14.0 % of control	86.0±11.0 % of control
CC1CCCCN1CC(=O)c1cc(O)c(O)c([N+](=O)[O-])c1.Cl (stereo not drawn) [Compound 6, 1-(3,4-Dihydroxy-5-nitro-phenyl)-2-(2-methyl-piperidin-1-yl)-ethanone hydrochloride]	12.2±1.7 % of control	57.6±5.8 % of control	99.9±10.3 % of control	–	–	37.0±3.3 % of control	66.0±2.6 % of control
CC1CCCCN1CCC(=O)c1cc(O)c(O)c([N+](=O)[O-])c1.Cl (stereo not drawn) [Compound 26, 1-(3,4-Dihydroxy-5-nitro-phenyl)-3-(2-methyl-piperidin-1-yl)-propan-1-one hydrochloride]	4.8±0.4 % of control	18.3±2.9 % of control	55.2±4.7 % of control	–	–	69.8±3.2 % of control	89.6±13.4 % of control
CCN(CC)C(C)C(=O)c1cc(O)c(O)c([N+](=O)[O-])c1.Cl (stereo not drawn) [Compound 7, 2-Diethylamino-1-(3,4-dihydroxy-5-nitro-phenyl)-propan-1-one hydrochloride]	9.0±0.2 % of control	38.4±2.8 % of control	57.1±4.9 % of control	–	–	74.0±12.0 % of control	126.0±8.0 % of control
Cl.Cl.O=C(CN1CCN(c2cccc(C(F)(F)F)c2)CC1)c1cc(O)c(O)c([N+](=O)[O-])c1 [Compound 13, 1-(3,4-Dihydroxy-5-nitro-phenyl)-2-[4-(3-trifluoromethyl-phenyl)-piperazin-1-yl]-ethanone dihydrochloride]	7.7±0.6 % of control	49.7±3.2 % of control	46.7±2.9 % of control	–	–	76.0±9.0 % of control	100.0±10.0 % of control
Cl.O=C(CN1CCCCCC1)c1cc(O)c(O)c([N+](=O)[O-])c1 [Compound 1, 2-Azepan-1-yl-1-(3,4-dihydroxy-5-nitro-phenyl)-ethanone hydrochloride]	4.3±0.6 % of control	40.8±6.4 % of control	49.9±2.2 % of control	–	–	45.0±15.0 % of control	102.0±19.0 % of control
Cl.O=C(CCN1CCSCC1)c1cc(O)c(O)c([N+](=O)[O-])c1 [Compound 19, 1-(3,4-Dihydroxy-5-nitro-phenyl)-3-thiomorpholin-4-yl-propan-1-one hydrochloride]	6.8±2.3 % of control	30.3±4.0 % of control	57.9±8.6 % of control	–	–	93.0±19.0 % of control	107.0±3.0 % of control
CCOC(=O)C1CCN(CCC(=O)c2cc(O)c(O)c([N+](=O)[O-])c2)CC1.Cl [Compound 17, 1-[3-(3,4-Dihydroxy-5-nitro-phenyl)-3-oxo-propyl]-piperidine-4-carboxylic acid ethyl ester hydrochloride]	7.7±0.5 % of control	36.8±2.3 % of control	69.6±8.9 % of control	–	–	96.0±5.0 % of control	109.0±14.0 % of control
Cl.O=C(CCN1CCCCCCC1)c1cc(O)c(O)c([N+](=O)[O-])c1 [Compound 16, 3-Azocan-1-yl-1-(3,4-dihydroxy-5-nitro-phenyl)-propan-1-one hydrochloride]	3.2±0.2 % of control	22.1±3.4 % of control	71.7±21.6 % of control	equally potent in inhibiting liver and brain COMT activity	–	25.0±13.0 % of control	95.0±12.0 % of control
Cl.Cl.O=C(CCN1CCN(c2ccccc2Cl)CC1)c1cc(O)c(O)c([N+](=O)[O-])c1 [Compound 22, 3-[4-(2-Chloro-phenyl)-piperazin-1-yl]-1-(3,4-dihydroxy-5-nitro-phenyl)-propan-1-one dihydrochloride]	0.0±0.0 % of control	54.2±7.5 % of control	71.7±0.4 % of control	–	–	94.0±3.0 % of control	96.0±18.0 % of control
CC1CN(CC(=O)c2cc(O)c(O)c([N+](=O)[O-])c2)CC(C)O1.Cl (stereo not drawn) [Compound 11, 1-(3,4-Dihydroxy-5-nitro-phenyl)-2-(2,6-dimethyl-morpholin-4-yl)-ethanone hydrochloride]	14.8±1.3 % of control	38.0±5.0 % of control	73.0±10.0 % of control	–	–	80.0±5.0 % of control	103.0±7.0 % of control
O=C(COc1cccc2ccccc12)c1cc(O)c(O)c([N+](=O)[O-])c1 [Compound 25, 1-(3,4-Dihydroxy-5-nitro-phenyl)-2-(naphthalen-1-yloxy)-ethanone]	0.0±0.0 % of control	13.7±1.9 % of control	31.1±5.5 % of control	–	–	62.8±5.1 % of control	92.4±10.8 % of control
Cl.O=C(CC(c1ccccc1)N1CCCC1)c1cc(O)c(O)c([N+](=O)[O-])c1 (stereo not drawn) [Compound 4, 1-(3,4-Dihydroxy-5-nitro-phenyl)-3-phenyl-3-pyrrolidin-1-yl-propan-1-one hydrochloride]	23.8±2.9 % of control	12.0±1.8 % of control	14.4±4.3 % of control	–	–	55.0±8.7 % of control	49.6±4.9 % of control
Cl.Cl.O=C(CCN1CCN(C(=O)c2ccccc2)CC1)c1cc(O)c(O)c([N+](=O)[O-])c1 [Compound 29, 3-(4-Benzoyl-piperazin-1-yl)-1-(3,4-dihydroxy-5-nitro-phenyl)-propan-1-one dihydrochloride]	1.5±0.6 % of control	–	–	–	–	–	–
COc1ccc(C(=O)N2CCN(CCC(=O)c3cc(O)c(O)c([N+](=O)[O-])c3)CC2)cc1.Cl.Cl [Compound 30, 1-(3,4-Dihydroxy-5-nitro-phenyl)-3-[4-(4-methoxy-benzoyl)-piperazin-1-yl]-propan-1-one dihydrochloride]	1.9±1.3 % of control	–	–	–	–	–	–
Cl.O=C(CCN1CCc2ccccc2C1)c1cc(O)c(O)c([N+](=O)[O-])c1 [Compound 27, 3-(3,4-Dihydro-1H-isoquinolin-2-yl)-1-(3,4-dihydroxy-5-nitro-phenyl)-propan-1-one hydrochloride]	11.4±4.0 % of control	–	–	–	–	–	–
